Results from PubChem BioAssay AID2060337 (Molecular Pharmacology Branch, DTP, NCI, 2025).
Values joined by “and” are separate entries in the source; they are usually repeats but may differ in a detail not shown here. Identical values can stand only once.

Tested on: 832693-133-R-J1-PDC multi-cell spheroids, viability
Test: Anticancer human tumor 832693-133-R-J1-PDC patient-derived head and neck squamous carcinoma cell line growth inhibition [IpAb]
Details: for viability, T/C: stronger effect = lower value
Method in brief: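 Spheroids of 60% malignant cells, 25% HUVEC and 15% MSC were exposed to targeted agents combined with ipatasertib or abemaciclib. Doses started at or near clinical Cmax (10 microM when unknown) and fell in half-log steps.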

[1] = curve of first compound, second compound 0.1 µM
[2] = curve of first compound, second compound 0.316 µM
[3] = curve of first compound, second compound 1 µM
[4] = curve of first compound, second compound 3.16 µM
[5] = curve of first compound, second compound 10 µM
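Further: spheroids exposed to the drugs for one week before the viability readout.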
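Wherever viability, T/C is given: 100% = DMSO vehicle control wells.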

In the case of `CC(=O)c1c(C)c2cnc(Nc3ccc(N4CCNCC4)cn3)nc2n(C2CCCC2)c1=O` + CC(C)NCC(C(=O)N1CCN(c2ncnc3c2C(C)CC3O)CC1)c1ccc(Cl)cc1, the IC50 [1] is reported as 69 nM, the IC50 [2] is reported as 11.7 nM and the IC50 [3] is reported as 2.65 nM. It also gave an IC50 [4] of 1.68 nM, an IC50 [5] of 2.82 nM and a viability, T/C (second compound 0.1 µM, first compound 0.000949 µM) of 90.5%. It also gave a viability, T/C (second compound 0.1 µM, first compound 0.003 µM) of 75%, a viability, T/C (second compound 0.1 µM, first compound 0.00949 µM) of 66.7% and a viability, T/C (second compound 0.1 µM, first compound 0.03 µM) of 53.4%. The viability, T/C (second compound 0.1 µM, first compound 0.0949 µM) was 47.8%, the viability, T/C (second compound 0.1 µM, first compound 0.3 µM) was 44.7% and the viability, T/C (second compound 0.316 µM, first compound 0.000949 µM) was 64.8%. For the same molecule, the viability, T/C (second compound 0.316 µM, first compound 0.003 µM) was 62.6%, the viability, T/C (second compound 0.316 µM, first compound 0.00949 µM) was 51.2% and the viability, T/C (second compound 0.316 µM, first compound 0.03 µM) was 41.5%. For the same molecule, the viability, T/C (second compound 0.316 µM, first compound 0.0949 µM) was 31.4%, the viability, T/C (second compound 0.316 µM, first compound 0.3 µM) was 34.1% and the viability, T/C (second compound 1 µM, first compound 0.000949 µM) was 56.9%. The viability, T/C (second compound 1 µM, first compound 0.003 µM) was 49.6%, the viability, T/C (second compound 1 µM, first compound 0.00949 µM) was 36.6% and the viability, T/C (second compound 1 µM, first compound 0.03 µM) was 33.3%. It also gave a viability, T/C (second compound 1 µM, first compound 0.0949 µM) of 27.8%, a viability, T/C (second compound 1 µM, first compound 0.3 µM) of 29.6% and a viability, T/C (second compound 3.16 µM, first compound 0.000949 µM) of 56.2%. The viability, T/C (second compound 3.16 µM, first compound 0.003 µM) was 45.1%, the viability, T/C (second compound 3.16 µM, first compound 0.00949 µM) was 31.6% and the viability, T/C (second compound 3.16 µM, first compound 0.03 µM) was 34.4%. The viability, T/C (second compound 3.16 µM, first compound 0.0949 µM) was 23.5%, the viability, T/C (second compound 3.16 µM, first compound 0.3 µM) was 20.8% and the viability, T/C (second compound 10 µM, first compound 0.000949 µM) was 61%. It also gave a viability, T/C (second compound 10 µM, first compound 0.003 µM) of 50.5%, a viability, T/C (second compound 10 µM, first compound 0.00949 µM) of 37.8% and a viability, T/C (second compound 10 µM, first compound 0.03 µM) of 30.5%. For the same molecule, the viability, T/C (second compound 10 µM, first compound 0.0949 µM) was 26.9% and the viability, T/C (second compound 10 µM, first compound 0.3 µM) was 21%.

With `CCN1CCN(Cc2ccc(Nc3ncc(F)c(-c4cc(F)c5nc(C)n(C(C)C)c5c4)n3)nc2)CC1` the viability, T/C (compound 0.01 µM) was 97.5% [middle of 13 runs], the viability, T/C (compound 0.0316 µM) was 82.1% [middle of 13 runs] and the viability, T/C (compound 0.1 µM) was 63.8% [middle of 13 runs]. For the same molecule, the viability, T/C (compound 0.316 µM) was 57.4% [middle of 13 runs] and the viability, T/C (compound 1 µM) was 59.1% [middle of 13 runs].

For `Cn1cnc2c(F)c(Nc3ccc(Br)cc3Cl)c(C(=O)NOCCO)cc21`, the viability, T/C (compound 0.00949 µM) was 79.6% and 64.7%, the viability, T/C (compound 0.03 µM) was 69.7% and 59.6% and the viability, T/C (compound 0.0949 µM) was 57.5% and 53.9%. For the same molecule, the viability, T/C (compound 0.3 µM) was 48.1% and 43.7%, the viability, T/C (compound 0.949 µM) was 38.3% and 35.9% and the viability, T/C (compound 3 µM) was 19.1% and 15%. The IC50 (curve of compound) was 241 nM and 167 nM.

In the case of `CCCS(=O)(=O)Nc1ccc(F)c(C(=O)c2c[nH]c3ncc(-c4ccc(Cl)cc4)cc23)c1F` + CC(C)NCC(C(=O)N1CCN(c2ncnc3c2C(C)CC3O)CC1)c1ccc(Cl)cc1, the IC50 [1] is reported as 8040 nM, the IC50 [2] is reported as > 10000 nM and the IC50 [3] is reported as > 10000 nM. For the same molecule, the IC50 [4] was > 10000 nM, the IC50 [5] was > 10000 nM and the viability, T/C (second compound 0.1 µM, first compound 0.0316 µM) was 99.1%. It also gave a viability, T/C (second compound 0.1 µM, first compound 0.1 µM) of 102%, a viability, T/C (second compound 0.1 µM, first compound 0.316 µM) of 92.5% and a viability, T/C (second compound 0.1 µM, first compound 1 µM) of 91.1%. For the same molecule, the viability, T/C (second compound 0.1 µM, first compound 3.16 µM) was 88.1%, the viability, T/C (second compound 0.1 µM, first compound 10 µM) was 41.4% and the viability, T/C (second compound 0.316 µM, first compound 0.0316 µM) was 79.5%. For the same molecule, the viability, T/C (second compound 0.316 µM, first compound 0.1 µM) was 79.2%, the viability, T/C (second compound 0.316 µM, first compound 0.316 µM) was 93% and the viability, T/C (second compound 0.316 µM, first compound 1 µM) was 92.9%. The viability, T/C (second compound 0.316 µM, first compound 3.16 µM) was 110%, the viability, T/C (second compound 0.316 µM, first compound 10 µM) was 56.9% and the viability, T/C (second compound 1 µM, first compound 0.0316 µM) was 60.1%. The viability, T/C (second compound 1 µM, first compound 0.1 µM) was 66.3%, the viability, T/C (second compound 1 µM, first compound 0.316 µM) was 66.7% and the viability, T/C (second compound 1 µM, first compound 1 µM) was 85.6%. It also gave a viability, T/C (second compound 1 µM, first compound 3.16 µM) of 139%, a viability, T/C (second compound 1 µM, first compound 10 µM) of 103% and a viability, T/C (second compound 3.16 µM, first compound 0.0316 µM) of 54.2%. For the same molecule, the viability, T/C (second compound 3.16 µM, first compound 0.1 µM) was 54.8%, the viability, T/C (second compound 3.16 µM, first compound 0.316 µM) was 62.6% and the viability, T/C (second compound 3.16 µM, first compound 1 µM) was 82.2%. The viability, T/C (second compound 3.16 µM, first compound 3.16 µM) was 126%, the viability, T/C (second compound 3.16 µM, first compound 10 µM) was 92% and the viability, T/C (second compound 10 µM, first compound 0.0316 µM) was 53.5%. For the same molecule, the viability, T/C (second compound 10 µM, first compound 0.1 µM) was 60.5%, the viability, T/C (second compound 10 µM, first compound 0.316 µM) was 61.5% and the viability, T/C (second compound 10 µM, first compound 1 µM) was 68.7%. The viability, T/C (second compound 10 µM, first compound 3.16 µM) was 98.8% and the viability, T/C (second compound 10 µM, first compound 10 µM) was 56.1%.
